Read-outs that look alike come from different tables or passages of the source.
How the values were obtained:
[1] = molecular target: T1, PRMT5-MEP50 enzyme (Homo sapiens, UniProt O14744); assay: In vitro assay 1a: high throughput mass spectrometer assay of SAH formation, 10 nM enzyme, 60 min; assay type: biochemical; conditions: averaged values, PRMT5-MEP50, 10 nM enzyme, read-out: pIC50 Assay 1a (converted)
T1 construct: One virus expresses full length human PRMT5 with Flag-tag at N-terminus; Flag (N); purchased Charles River (Argenta); host or cells: insect cells (Sf9), baculovirus co-infection
T1 sequence (O14744 whole entry): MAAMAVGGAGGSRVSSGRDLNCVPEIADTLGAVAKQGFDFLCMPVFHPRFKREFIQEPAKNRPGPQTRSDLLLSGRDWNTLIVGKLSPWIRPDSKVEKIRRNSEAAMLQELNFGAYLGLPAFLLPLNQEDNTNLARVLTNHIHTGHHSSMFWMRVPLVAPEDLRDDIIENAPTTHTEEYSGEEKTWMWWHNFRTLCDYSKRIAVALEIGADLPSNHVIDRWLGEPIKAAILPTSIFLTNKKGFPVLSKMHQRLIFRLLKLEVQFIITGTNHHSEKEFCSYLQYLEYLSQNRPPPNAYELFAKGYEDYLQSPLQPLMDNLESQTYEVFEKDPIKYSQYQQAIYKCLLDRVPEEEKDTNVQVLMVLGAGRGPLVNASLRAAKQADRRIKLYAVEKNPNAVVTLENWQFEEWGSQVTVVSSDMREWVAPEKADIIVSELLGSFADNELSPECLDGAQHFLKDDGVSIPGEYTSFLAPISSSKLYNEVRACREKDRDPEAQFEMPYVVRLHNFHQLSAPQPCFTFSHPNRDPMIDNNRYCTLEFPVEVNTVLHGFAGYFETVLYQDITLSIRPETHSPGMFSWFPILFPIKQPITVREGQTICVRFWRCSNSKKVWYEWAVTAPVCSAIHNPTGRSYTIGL
T1 sequence (Q9BQA1 whole entry partner): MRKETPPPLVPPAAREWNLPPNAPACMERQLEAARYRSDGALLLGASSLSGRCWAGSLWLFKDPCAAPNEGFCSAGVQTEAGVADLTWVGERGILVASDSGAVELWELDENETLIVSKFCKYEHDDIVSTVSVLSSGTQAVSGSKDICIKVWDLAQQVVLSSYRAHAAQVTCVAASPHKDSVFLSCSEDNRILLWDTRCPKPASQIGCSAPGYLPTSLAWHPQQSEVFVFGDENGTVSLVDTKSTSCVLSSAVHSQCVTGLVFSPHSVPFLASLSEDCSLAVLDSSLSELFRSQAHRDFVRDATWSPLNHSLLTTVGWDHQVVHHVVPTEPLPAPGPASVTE
Summary of the method: (§1)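 Flag-PRMT5/His-MEP50 complex from Sf9 cells, with 1 μM SAM and 0.3 μM full-length histone H2A in pH 8.5 Tris buffer, at 30 °C; 10 nM enzyme for 60 min (1a) or 1.25 nM for 120 min (1b). Formic acid-quenched SAH read by RapidFire MS/MS; 11-point IC50 with Hill fit.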

[2] = molecular target: T1, PRMT5-MEP50 enzyme; assay: In vitro assay 1b: high throughput mass spectrometer assay of SAH formation, 1.25 nM enzyme, 120 min; assay type: biochemical; conditions: averaged values; PRMT5-MEP50, 1.25 nM enzyme, 120 min; read-out: pIC50 Assay 1b (converted)
Summary of the method: as §1

[3] = tested on: nuclear symmetric Arginine dimethylation in A549 cells; assay: PD assay (assay 2): inhibition of nuclear symmetric Arginine dimethylation (SYM10 immunohistochemistry), 48 h; assay type: cell-based; conditions: Homo sapiens
Summary of the method: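 Cells seeded at 400/well overnight, then treated 48 h at 37 °C, final DMSO 0.2%. Fixed and stained with SYM10 antibody plus Alexa 488 secondary, Hoechst and CellMask, then imaged on Opera. Normalized to DMSO (high) and 10 μM reference compound (low); averaged pIC50 reported.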

[4] = A549, averaged values, PD assay, A549 cells, symmetric Arginine dimethylation, read-out: pIC50 Assay 2 (converted)
[5] = A549, read-out: pIC50 Assay 2 (converted)

SMILES | IC50 [1] | IC50 [2] | IC50 [3, 4] | IC50 [3, 5]
Nc1ncnc2c1ncn2[C@@H]1O[C@H](COc2cc3ncc(Br)cc3cc2Cl)[C@@H](O)[C@H]1O [Compound 219] | 3980 nM | > 100000 nM | 7940 nM | –
Nc1ncnc2c1ccn2[C@@H]1O[C@H](CCc2ccc3cc(Cl)cnc3c2)[C@@H](O)[C@H]1O [Compound 59] | 25.1 nM | 79.4 nM | 126 nM | –
Nc1ncnc2c1ccn2[C@@H]1O[C@H](COc2cc3ncccc3cc2I)[C@@H](O)[C@H]1O [Compound 3] | 39.8 nM | 158 nM | 631 nM | –
O[C@@H]1[C@H](O)[C@@H](CCc2ccc3ccc(NCc4ccc(Cl)cc4)nc3c2)O[C@H]1n1ccc2cncnc21 [Compound 165] | 3.98 nM | 31.6 nM | 20 nM | –
Nc1ncnc2c1ccn2[C@@H]1O[C@H](/C=C/c2ccc3cc(Cl)cnc3c2)[C@@H](O)[C@H]1O [Compound 57a] | 31.6 nM | 50.1 nM | 63.1 nM | –
COc1cc2c(N)c(C#N)cnc2cc1OC[C@H]1O[C@@H](n2ccc3c(N)ncnc32)[C@H](O)[C@@H]1O [Compound 31] | 3160 nM | 3980 nM | > 20000 nM | –
CNc1ccc2ccc(OC[C@H]3O[C@@H](n4ccc5cncnc54)[C@H](O)[C@@H]3O)cc2n1 [Compound 174] | 10 nM | 50.1 nM | 126 nM | –
O[C@@H]1[C@@H](CCc2ccc3ccc(NCc4ccccc4)nc3c2)C[C@@H](n2ccc3cncnc32)[C@@H]1O [Compound 172] | 0.501 nM | 3.98 nM | < 1.17 nM | –
N#Cc1ccc2ccc(OC[C@H]3O[C@@H](n4ccc5c(N)ncnc54)[C@H](O)[C@@H]3O)cc2n1 [Compound 70] | 631 nM | 1580 nM | 6310 nM | –
Nc1nc(Cl)nc2c1ccn2[C@@H]1O[C@H](COc2ccc3cc(Br)cnc3c2)[C@@H](O)[C@H]1O [Compound 42] | 50.1 nM | 126 nM | 316 nM | –
COCc1cnc2cc(OC[C@H]3O[C@@H](n4ccc5c(N)ncnc54)[C@H](O)[C@@H]3O)ccc2c1 [Compound 120] | 79.4 nM | 316 nM | 316 nM | –
COc1ncnc2c1ccn2[C@@H]1O[C@H](CNc2ccc3cc(Br)cnc3c2)[C@@H](O)[C@H]1O [Compound 87] | 501 nM | 1000 nM | 1580 nM | –
CCc1cnc2cc(CC[C@H]3C[C@@H](n4ccc5c(N)ncnc54)[C@H](O)[C@@H]3O)ccc2c1 [Compound 125] | 3.98 nM | 25.1 nM | 20 nM | –
O[C@@H]1[C@H](O)[C@@H](COc2ccc3ccc(NCc4ccc(Cl)cc4)nc3c2)O[C@H]1n1ccc2cncnc21 [Compound 173] | 2 nM | 15.8 nM | 39.8 nM | –
COC(=O)c1cnc2cc(OC[C@H]3O[C@@H](n4ccc5c(N)ncnc54)[C@H](O)[C@@H]3O)ccc2c1 [Compound 105] | 158 nM | 1000 nM | 2510 nM | –
Cc1ncnc2c1ccn2[C@@H]1O[C@H](COc2ccc3ccc(NCc4ccc(Cl)cc4)nc3c2)[C@@H](O)[C@H]1O [Compound 205] | 3.16 nM | 25.1 nM | 50.1 nM | –
O[C@@H]1[C@H](O)[C@@H](COc2ccc3ccc(NCC4CC4)nc3c2)O[C@H]1n1ccc2cncnc21 [Compound 170] | 6.31 nM | 63.1 nM | 79.4 nM | –
Cc1nc(N)c2ccn([C@@H]3O[C@H](CNc4ccc5cc(Br)cnc5c4)[C@@H](O)[C@H]3O)c2n1 [Compound 53] | 39.8 nM | 50.1 nM | 50.1 nM | –
C=C(C)c1cnc2cc(OC[C@H]3O[C@@H](n4ccc5c(N)ncnc54)[C@H](O)[C@@H]3O)ccc2c1 [Compound 212] | 20 nM | 50.1 nM | – | 200 nM
Cc1ncnc2c1ccn2[C@@H]1C[C@H](CCc2ccc3ccc(NCC4CC4)nc3c2)[C@@H](O)[C@H]1O [Compound 190] | 0.501 nM | 5.01 nM | ~1.86 nM | –
Nc1ncnc2c1ccn2[C@@H]1C[C@H](CCc2ccc3ccc(NC4CCCC4)nc3c2)[C@@H](O)[C@H]1O [Compound 146] | 0.251 nM | 2.51 nM | < 1.17 nM | –
Nc1ncnc2c1ccn2[C@@H]1O[C@H](COc2ccc3cc(Cl)cnc3c2Cl)[C@@H](O)[C@H]1O [Compound 101] | 1000 nM | 794 nM | 2000 nM | –
Cc1nc(N)c2ccn([C@@H]3O[C@H](COc4ccc5cc(Br)cnc5c4)[C@@H](O)[C@H]3O)c2n1 [Compound 43] | 79.4 nM | 200 nM | 316 nM | –

SMILES | IC50 [1] | IC50 [2] | IC50 [3, 4] | IC50 [3, 5]
CN(C)c1ccc2ccc(OC[C@H]3O[C@@H](n4ccc5c(N)ncnc54)[C@H](O)[C@@H]3O)cc2n1 [Compound 23] | 501 nM | 316 nM | – | 398 nM
Nc1ncnc2c1ccn2[C@@H]1O[C@H](C#Cc2ccc3cccnc3c2)[C@@H](O)[C@H]1O [Compound 63] | 25.1 nM | 126 nM | 200 nM | –
Nc1ncnc2c1ccn2[C@@H]1C[C@H](CNc2ccc3cc(Br)cnc3c2)[C@@H](O)[C@H]1O [Compound 54] | 15.8 nM | 15.8 nM | 31.6 nM | –
Cc1ncnc2c1ccn2[C@@H]1C[C@H](CCc2ccc3ccc(NCc4ccc(Cl)cc4)nc3c2)[C@@H](O)[C@H]1O [Compound 193] | 1 nM | 7.94 nM | 3.16 nM | –
CNc1ccc2ccc(CC[C@H]3O[C@@H](n4ccc5c(Cl)ncnc54)[C@H](O)[C@@H]3O)cc2n1 [Compound 128] | 7.94 nM | 63.1 nM | 200 nM | –
Cc1cc2c(N)ncnc2n1[C@@H]1O[C@H](COc2ccc3cccnc3c2)[C@@H](O)[C@H]1O [Compound 83] | 39.8 nM | 126 nM | 200 nM | –
Nc1ncnc2c1ccn2[C@@H]1O[C@H](CNc2ccc3cc(Br)cnc3c2)[C@@H](O)[C@H]1O [Compound 51] | 10 nM | 15.8 nM | ~15.5 nM | –
Nc1ncnc2c1ccn2[C@@H]1C[C@H](CCc2ccc3cnc(NC4CC4)nc3c2)[C@@H](O)[C@H]1O [Compound 145] | 15.8 nM | 79.4 nM | 79.4 nM | –
COc1ncnc2c1ccn2[C@@H]1O[C@H](COc2ccc3cc(Br)cnc3c2)[C@@H](O)[C@H]1O [Compound 71] | 3160 nM | 2000 nM | 10000 nM | –
Nc1ncnc2c1ccn2[C@@H]1C[C@H](OCc2ccc3cnccc3c2)[C@@H](O)[C@H]1O [Compound 85] | > 10000 nM | 7940 nM | 12600 nM | –
O[C@@H]1[C@H](O)[C@@H](COc2ccc3ccc(NCC4CC4)nc3c2)O[C@H]1n1ccc2c(Cl)ncnc21 [Compound 140] | 6.31 nM | 50.1 nM | 794 nM | –
Nc1ncnc2c1ccn2[C@@H]1O[C@H](COc2ccc3cc(Cl)cnc3c2)[C@@H](O)[C@H]1O [Compound 25] | 12.6 nM | 39.8 nM | 126 nM | –
Nc1ncnc2c1ncn2[C@@H]1O[C@H](COc2ccc3cc(Br)cnc3c2)[C@@H](O)[C@H]1O [Compound 220] | 316 nM | 501 nM | 2510 nM | –
Nc1ncnc2c1ccn2[C@@H]1O[C@H](COc2ccc3cnccc3c2)[C@@H](O)[C@H]1O [Compound 12] | 1580 nM | 3980 nM | > 10000 nM | –
Nc1ncnn2c([C@@H]3O[C@H](CCc4ccc5cccnc5c4)[C@@H](O)[C@H]3O)ccc12 [Compound 62] | 631 nM | 794 nM | 1580 nM | –
Nc1ncnc2c1ccn2[C@@H]1C[C@H](COc2ccc3cc(Cl)cnc3c2)[C@@H](O)[C@H]1O [Compound 222] | 31.6 nM | 63.1 nM | ~174 nM | –
COCc1ccc2ccc(OC[C@H]3O[C@@H](n4ccc5c(N)ncnc54)[C@H](O)[C@@H]3O)cc2n1 [Compound 175] | > 10000 nM | 3160 nM | > 10000 nM | –
COc1ncnc2c1ccn2[C@@H]1O[C@H](CCc2ccc3ccc(NCC4CC4)nc3c2)[C@@H](O)[C@H]1O [Compound 191] | 200 nM | 631 nM | 1260 nM | –
Nc1ncnc2c1ccn2[C@@H]1O[C@H](COc2cnc3ccccc3c2)[C@@H](O)[C@H]1O [Compound 10] | 3160 nM | 3980 nM | ~7080 nM | –
Cc1cnc2cc(CC[C@H]3O[C@@H](n4ccc5c(N)ncnc54)[C@H](O)[C@@H]3O)ccc2c1 [Compound 123] | 5.01 nM | 39.8 nM | 31.6 nM | –
Nc1ncnc2c1ccn2[C@@H]1O[C@H](COc2ccc3c(Cl)c(Cl)cnc3c2)[C@@H](O)[C@H]1O [Compound 35] | 398 nM | 794 nM | 398 nM | –
O[C@@H]1[C@H](O)[C@@H](CCc2ccc3ccc(NCC4CC4)nc3c2)O[C@H]1n1ccc2cncnc21 [Compound 168] | 3.98 nM | 50.1 nM | 126 nM | –
Nc1ncc2ccc(CC[C@H]3C[C@@H](n4ccc5c(N)ncnc54)[C@H](O)[C@@H]3O)cc2n1 [Compound 216] | 1 nM | 7.94 nM | 10 nM | –

From patent US11318157B2, “6-6 bicyclic aromatic ring substituted nucleoside analogues for use as PRMT5 inhibitors” (Janssen Pharmaceutica NV, priority 2015, dated 2022)
